Read-outs that look alike come from different tables or passages of the source.
Experiments:
[1] = target: His6-ERα298-554 WT (ERα ligand-binding domain) (Homo sapiens (Human), UniProt P03372); experiment: Test A: biochemical antagonist activity, LanthaScreen TR-FRET ERα coactivator assay, WT; conditions: asterisk (*): protocol using 10 nM estradiol; read-out: Antagonism WT IC50
Outline: (§1)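 TR-FRET 520:495 nm emission ratio read after overnight room-temperature incubation; IC50 derived by 4-parameter logistic fit. Mix: 0.5 nM receptor LBD, 0.5 nM Tb-His6 antibody, 250 nM PGC1a peptide, 3 nM or 10 nM estradiol, pH 7.4 phosphate buffer.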

[2] = tested on: MCF7 cells expressing mutant estrogen receptor Asp 538 Gly; experiment: Test B: cell proliferation/viability assay (CellTiter-Glo) on MCF7 Asp 538 Gly mutant; format: cell-based; conditions: MCF7 cells expressing ER Asp 538 Gly mutant, 7 days of compound exposure, read-out: proliferation MCF7 D538G IC50
Outline: (§2)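 Mutant lines are MCF7 transfected with ER mutants and selected for estradiol-independent growth. Cells in phenol red-free MEM with 5% charcoal-stripped FBS received 9-point 1:5 dilutions (3-0.000001 μM) for 7 days; CellTiter-Glo luminescence, % viability relative to untreated after background subtraction.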

[3] = target: His6-ERα298-554 D538G mutant (ERα ligand-binding domain) (Homo sapiens (Human), UniProt P03372, D538G); experiment: Test A: biochemical antagonist activity, LanthaScreen TR-FRET ERα coactivator assay, D538G mutant; conditions: asterisk (*): protocol using 10 nM estradiol; read-out: Antagonism D538G IC50
His6-ERα298-554 D538G mutant (ERα ligand-binding domain), sequence (P03372 298-554 D538G): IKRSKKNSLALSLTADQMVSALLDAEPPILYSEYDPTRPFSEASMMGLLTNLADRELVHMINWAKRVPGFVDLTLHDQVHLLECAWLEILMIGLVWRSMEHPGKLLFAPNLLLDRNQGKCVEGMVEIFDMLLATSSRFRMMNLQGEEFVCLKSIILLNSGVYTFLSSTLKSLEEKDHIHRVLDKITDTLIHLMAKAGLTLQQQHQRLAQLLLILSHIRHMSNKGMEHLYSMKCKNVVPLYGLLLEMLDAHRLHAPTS
Outline: as §1

[4] = tested on: MCF7 cells (breast tumor cells) WT; experiment: Test B: cell proliferation/viability assay (CellTiter-Glo) on MCF7 WT; format: cell-based; conditions: 7 days of compound exposure
Outline: as §2

[5] = tested on: MCF7 cells expressing mutant estrogen receptor Tyr 537 Ser; experiment: Test B: cell proliferation/viability assay (CellTiter-Glo) on MCF7 Tyr 537 Ser mutant; format: cell-based; conditions: MCF7 cells expressing ER Tyr 537 Ser mutant, 7 days of compound exposure, read-out: proliferation MCF7 Y537S IC50
Outline: as §2

ERα in MCF7 cells = ERα in MCF7 cells (Homo sapiens (Human), UniProt P03372); experiment: Test C: estrogen receptor degradation activity, ERα in cell western assay in MCF7 cells; format: cell-based; conditions: for DC50: 4 hours post compound addition, ERα in cell western, read-out: Degradation IC50; for % Degradation at 3 μM: 4 hours, relative to fulvestrant
ERα in MCF7 cells, sequence (P03372 whole entry): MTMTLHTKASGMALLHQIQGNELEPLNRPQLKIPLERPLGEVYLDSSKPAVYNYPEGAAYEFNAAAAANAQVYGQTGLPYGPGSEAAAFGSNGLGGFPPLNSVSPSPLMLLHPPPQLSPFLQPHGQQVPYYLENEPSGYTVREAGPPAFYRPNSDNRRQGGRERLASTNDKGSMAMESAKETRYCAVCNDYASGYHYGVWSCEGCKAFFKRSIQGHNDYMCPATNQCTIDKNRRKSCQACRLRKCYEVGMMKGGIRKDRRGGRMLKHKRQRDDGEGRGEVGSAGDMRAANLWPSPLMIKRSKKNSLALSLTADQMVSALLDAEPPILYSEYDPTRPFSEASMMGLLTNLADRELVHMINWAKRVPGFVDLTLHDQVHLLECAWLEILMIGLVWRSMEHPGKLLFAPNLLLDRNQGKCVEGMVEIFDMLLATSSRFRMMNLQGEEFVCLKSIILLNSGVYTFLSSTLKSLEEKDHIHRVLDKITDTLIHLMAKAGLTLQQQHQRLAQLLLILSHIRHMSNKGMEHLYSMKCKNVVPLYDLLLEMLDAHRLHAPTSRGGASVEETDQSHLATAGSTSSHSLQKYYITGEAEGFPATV
Outline: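 MCF7 cells in phenol-red-free medium with 5% charcoal-stripped FBS received compound (9-point 1:5, 3-0.000018 μM) for 4 h, then were fixed. ERα immunostained (Alexa 488) and normalised to DNA (Syto-64), read as integrated fluorescence on an Acumen scanner.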

[6] = target: His6-ERα298-554 Y537S mutant (ERα ligand-binding domain) (Homo sapiens (Human), UniProt P03372, Y537S); experiment: Test A: biochemical antagonist activity, LanthaScreen TR-FRET ERα coactivator assay, Y537S mutant; conditions: asterisk (*): protocol using 10 nM estradiol; read-out: Antagonism Y537S IC50
His6-ERα298-554 Y537S mutant (ERα ligand-binding domain), sequence (P03372 298-554 Y537S): as the sequence (P03372 298-554 D538G) above, with Y240S, G241D counted along it
Outline: as §1

His6-ERα298-554 WT (ERα ligand-binding domain), sequence (P03372 298-554): as the sequence (P03372 298-554 D538G) above, with G241D counted along it

| SMILES | IC50 [1] | IC50 ([2]; Homo sapiens, MCF7, 168 h) | IC50 [3] | IC50 ([4]; Homo sapiens, MCF7, 168 h) | IC50 ([5]; Homo sapiens, MCF7, 168 h) | DC50 (ERα in MCF7 cells) | % Degradation at 3 μM (ERα in MCF7 cells) | IC50 [6] | IC50 [2] | IC50 [4] | IC50 [5] | IC50 ([2]; Homo sapiens, 168 h) | IC50 ([4]; Homo sapiens, 168 h) | IC50 ([5]; Homo sapiens, 168 h) |
| --- | --- | --- | --- | --- | --- | --- | --- | --- | --- | --- | --- | --- | --- | --- |
| C[C@@H]1Cc2cc(C3=C(c4ccc(O[C@H]5CCN(CCCF)C5)cc4)c4ccc(O)cc4SCC3)ccc2O1 [Example 202, 5-[4-[(3S)-1-(3-fluoropropyl)pyrrolidin-3-yl]oxyphenyl]-4-[(2R)-2-methyl-2,3-dihydrobenzofuran-5-yl]-2,3-dihydro-1-benzothiepin-8-ol] | 1 nM | 1 nM | 15 nM | 0.4 nM | 6 nM | 0.5 nM | 89% | 11 nM | – | – | – | – | – | – |
| NS(=O)(=O)c1ccc(C2=C(c3ccc(O[C@H]4CCN(CCCF)C4)cc3)c3ccc(O)cc3SC2)cc1 [Example 42, 4-[4-[4-[(3S)-1-(3-fluoropropyl)pyrrolidin-3-yl]oxyphenyl]-7-hydroxy-2H-thiochromen-3-yl]benzenesulfonamide] | 674 nM | 31 nM | > 4000 nM | 46 nM | 809 nM | 11 nM | 89% | > 4000 nM | – | – | – | – | – | – |
| CCOc1ccc(C2=C(c3ccc(O[C@H]4CCN(CCCF)C4)cc3)c3ccc(O)cc3SC2)c(C)c1 [Example 39, 3-(4-ethoxy-2-methyl-phenyl)-4-[4-[(3S)-1-(3-fluoropropyl)pyrrolidin-3-yl]oxyphenyl]-2H-thiochromen-7-ol] | 9 nM | 0.5 nM | 221 nM | 0.4 nM | 2 nM | 0.7 nM | 86% | 127 nM | – | – | – | – | – | – |
| Oc1ccc2c(c1)SCC(c1ccc(OCF)cc1)=C2c1ccc(O[C@H]2CCN(CCCF)C2)cc1 [Example 60, 3-[4-(fluoromethoxy)phenyl]-4-[4-[(3S)-1-(3-fluoropropyl)pyrrolidin-3-yl]oxyphenyl]-2H-thiochromen-7-ol] | 9 nM | 0.4 nM | 215 nM | 0.5 nM | 3 nM | 0.2 nM | 73% | 103 nM | – | – | – | – | – | – |
| CC1(C)Cc2cc(C3=C(c4ccc(O[C@H]5CCN(CCCF)C5)cc4)c4ccc(O)cc4SC3)ccc2O1 [Example 32, 3-(2,2-dimethyl-3H-benzofuran-5-yl)-4-[4-[(3S)-1-(3-fluoropropyl)pyrrolidin-3-yl]oxyphenyl]-2H-thiochromen-7-ol] | 19 nM | 1 nM | 314 nM | 0.4 nM | 6 nM | 0.8 nM | 87% | 168 nM | – | – | – | – | – | – |
| CC1Cc2cc(C3=C(c4ccc(O[C@H]5CCN(CCCF)C5)cc4)c4ccc(O)cc4SCC3)ccc2O1 (stereo partly drawn) [Example 197, 5-[4-[(3S)-1-(3-fluoropropyl)pyrrolidin-3-yl]oxyphenyl]-4-(2-methyl-2,3-dihydrobenzofuran-5-yl)-2,3-dihydro-1-benzothiepin-8-ol] | 1 nM | 0.6 nM | 20 nM | 0.3 nM | 5 nM | 0.2 nM | 88% | 13 nM | – | – | – | – | – | – |
| O=C(O)c1ccc2c(c1)CCCC(c1ccc(OC(F)F)c(F)c1)=C2c1ccc(O[C@H]2CCN(CCCF)C2)nc1 [Example 248, 6-[4-(difluoromethoxy)-3-fluoro-phenyl]-5-[6-[(3S)-1-(3-fluoropropyl)pyrrolidin-3-yl]oxy-3-pyridyl]-8,9-dihydro-7H-benzo[7]annulene-2-carboxylicacid] | 141 nM | 1 nM | 3440 nM | 0.7 nM | 15 nM | 0.7 nM | 95% | 1920 nM | – | – | – | – | – | – |
| Oc1ccc2c(c1)CCCC(c1ccc(OC(F)(F)F)cc1F)=C2c1ccc(N[C@H]2CCN(CCCF)C2)cc1 [Example 88, 5-[4-[[(3S)-1-(3-fluoropropyl)pyrrolidin-3-yl]amino]phenyl]-6-[2-fluoro-4-(trifluoromethoxy)phenyl]-8,9-dihydro-7H-benzo[7]annulen-2-ol] | 12 nM | 0.6 nM | 293 nM | 0.3 nM | 3 nM | 0.2 nM | 88% | 159 nM | – | – | – | – | – | – |
| COCCOc1ccc(C2=C(c3ccc(O[C@H]4CCN(CCCF)C4)cc3)c3ccc(O)cc3OCC2)cc1 [Example 146, 5-[4-[(3S)-1-(3-fluoropropyl)pyrrolidin-3-yl]oxyphenyl]-4-[4-(2-methoxyethoxy)phenyl]-2,3-dihydro-1-benzoxepin-8-ol] | 51 nM | 12 nM | 1170 nM | 6 nM | 69 nM | 2 nM | 86% | 845 nM | – | – | – | – | – | – |
| CC1Cc2c([nH]c3ccccc23)C(c2c(F)cc(O[C@H]3CCN(CCCF)C3)cc2F)N1CC(C)(C)F (single isomer, unassigned) [Example 257] | 3310 nM | – | > 4000 nM | – | – | 37 nM | 87% | > 4000 nM | 85 nM | 18 nM | 272 nM | – | – | – |
| CC1(C)Cc2cc(C3=C(c4ccc(O[C@H]5CCN(CCCF)C5)cc4)c4ccc(O)cc4SC3)ccc2N1 [Example 29, 3-(2,2-dimethylindolin-5-yl)-4-[4-[(3S)-1-(3-fluoropropyl)pyrrolidin-3-yl]oxyphenyl]-2H-thiochromen-7-ol] | 14 nM | 0.9 nM | 240 nM | 0.4 nM | 6 nM | 0.2 nM | 92% | 130 nM | – | – | – | – | – | – |
| Cc1ccc(C2=C(c3ccc(O[C@H]4CCN(CCCF)C4)cc3)c3ccc(OP(=O)(O)O)cc3SC2)c(F)c1 [Example 48, [3-(2-fluoro-4-methyl-phenyl)-4-[4-[(3S)-1-(3-fluoropropyl)pyrrolidin-3-yl]oxyphenyl]-2H-thiochromen-7-yl]dihydrogen phosphate] | > 4000 nM | – | > 4000 nM | – | – | 0.8 nM | 89% | > 4000 nM | – | – | – | 6 nM | 1 nM | 17 nM |
| Cc1cc(C2=C(c3ccc(O[C@H]4CCN(CCCF)C4)cc3)c3ccc(C(=O)O)cc3SCC2)ccc1Cl [Example 211, 4-(4-chloro-3-methyl-phenyl)-5-[4-[(3S)-1-(3-fluoropropyl)pyrrolidin-3-yl]oxyphenyl]-2,3-dihydro-1-benzothiepine-8-carboxylic acid] | 39 nM | 0.6 nM | 964 nM | 0.4 nM | 10 nM | 0.3 nM | 93% | 475 nM | – | – | – | – | – | – |
| CCOc1ccc(C2=C(c3ccc(O[C@H]4CCN(CCCF)C4)nc3)c3ccc(O)cc3SCC2)c(F)n1 [Example 208, 4-(6-ethoxy-2-fluoro-3-pyridyl)-5-[6-[(3S)-1-(3-fluoropropyl)pyrrolidin-3-yl]oxy-3-pyridyl]-2,3-dihydro-1-benzothiepin-8-ol] | 0.6 nM | 0.7 nM | 7 nM | 0.2 nM | 4 nM | 0.4 nM | 86% | 5 nM | – | – | – | – | – | – |
| Nc1ccc(C2=C(c3ccc(O[C@H]4CCN(CCCF)C4)cc3)c3ccc(O)cc3SC2)c(F)n1 [Example 72, 3-(6-amino-2-fluoro-3-pyridyl)-4-[4-[(3S)-1-(3-fluoropropyl)pyrrolidin-3-yl]oxyphenyl]-2H-thiochromen-7-ol] | 11 nM | 0.5 nM | 202 nM | 2 nM | 1 nM | 0.2 nM | 91% | 108 nM | – | – | – | – | – | – |

Source: US11149031B2, “Substituted N-(3-fluoropropyl)-pyrrolidine compounds, processes for their preparation and therapeutic uses thereof” (SANOFI, priority 2016, dated 2021)
